The record followed here is patent publication US12049450B2, “Pyridyloxy-carboxylate derivative and preparation method therefor, herbicidal composition, and use” (Qingdao Kingagroot Chemical Compound Co., Ltd., priority 2018, dated 2024).

Holding throughout (assay): Post-emergence test experiment (greenhouse pot, spray at 2-3 leaf stage)
Holding throughout (format): in vivo
Common to all, as to settings: 1000 g/ha; post-emergence spray at 2-3 leaf stage; assessed after 3 weeks; fresh weight inhibition rate

In assay [1] the test system is Abutilon theophrasti. In short, it runs like this: (§1)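 Activity graded levels 0-5 by fresh-weight inhibition (level 5 above 85%, level 0 below 5%), assessed 3 weeks after treatment. Plants grown in greenhouse pots were sprayed post-emergence at 2-3 leaves using acetone/tween-80 solutions with methyl oleate synergist (1.5 L/ha).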
Assay [2] deals with Galium spurium. In short, it runs like this: as §1
Assay [3] relates to Echinochloa crusgalli. The method, boiled down:
as §1

In assay [4] the test system is Digitaria sanguinalis. In short, it runs like this: as §1
The subject of assay [5] is Monochoria vaginalis. In short, it runs like this: as §1

As to `CC(Oc1nc(F)c(Cl)c(N)c1Cl)C(=O)OCc1cccc(C#N)c1` (stereo not shown) [Compound 201], the “Activity level (growth inhibition rate) Abutilon theophrasti” value in assay [1] is 5 (Level 5: the growth inhibition rate is greater than 85%). Further, the “Activity level (growth inhibition rate) Galium spurium” value in assay [2] was 5 (Level 5: the growth inhibition rate is greater than 85%). Also, in assay [3], the “Activity level (growth inhibition rate) Echinochloa crusgalli” value is listed as 5 (Level 5: the growth inhibition rate is greater than 85%). In assay [4], the “Activity level (growth inhibition rate) Digitaria sanguinalis” value was 5 (Level 5: the growth inhibition rate is greater than 85%). In assay [5], the “Activity level (growth inhibition rate) Monochoria Vaginalis” value is listed as 5 (Level 5: the growth inhibition rate is greater than 85%).

Turning to `CC(=O)Nc1c(Cl)c(F)nc(OC(C)C(=O)OCc2ccccc2)c1Cl` (stereo not shown) [Compound 192], the “Activity level (growth inhibition rate) Abutilon theophrasti” value in assay [1] was 5 (Level 5: the growth inhibition rate is greater than 85%). In assay [2], the “Activity level (growth inhibition rate) Galium spurium” value is 5 (Level 5: the growth inhibition rate is greater than 85%). The “Activity level (growth inhibition rate) Echinochloa crusgalli” value in assay [3] is on record as 5 (Level 5: the growth inhibition rate is greater than 85%). Moreover, the “Activity level (growth inhibition rate) Digitaria sanguinalis” value in assay [4] is reported as 5 (Level 5: the growth inhibition rate is greater than 85%). Further, the “Activity level (growth inhibition rate) Monochoria Vaginalis” value in assay [5] is reported as 5 (Level 5: the growth inhibition rate is greater than 85%).

On to `CC(Oc1nc(F)c(Cl)c(N)c1Cl)C(=O)OCc1nccs1` (stereo not shown) [Compound 163], for which the “Activity level (growth inhibition rate) Abutilon theophrasti” value in assay [1] was 5 (Level 5: the growth inhibition rate is greater than 85%). Further, in assay [2], the “Activity level (growth inhibition rate) Galium spurium” value was 5 (Level 5: the growth inhibition rate is greater than 85%). For the same compound, in assay [3], the “Activity level (growth inhibition rate) Echinochloa crusgalli” value was 5 (Level 5: the growth inhibition rate is greater than 85%). Besides, the “Activity level (growth inhibition rate) Digitaria sanguinalis” value in assay [4] is 5 (Level 5: the growth inhibition rate is greater than 85%). In addition, the “Activity level (growth inhibition rate) Monochoria Vaginalis” value in assay [5] was 5 (Level 5: the growth inhibition rate is greater than 85%).

In the case of `CC(Oc1nc(F)c(Cl)c(N)c1Cl)C(=O)OCc1ccc(C(F)(F)F)cc1` (stereo not shown) [Compound 210], the “Activity level (growth inhibition rate) Abutilon theophrasti” value in assay [1] is listed as 5 (Level 5: the growth inhibition rate is greater than 85%). Besides, the “Activity level (growth inhibition rate) Galium spurium” value in assay [2] is on record as 5 (Level 5: the growth inhibition rate is greater than 85%). The “Activity level (growth inhibition rate) Echinochloa crusgalli” value in assay [3] was 5 (Level 5: the growth inhibition rate is greater than 85%). The “Activity level (growth inhibition rate) Digitaria sanguinalis” value in assay [4] was 5 (Level 5: the growth inhibition rate is greater than 85%). For the same compound, the “Activity level (growth inhibition rate) Monochoria Vaginalis” value in assay [5] is on record as 5 (Level 5: the growth inhibition rate is greater than 85%).

For `CC(Oc1nc(I)c(Cl)c(N)c1Cl)C(=O)SCc1ccccc1` (stereo not shown) [Compound 17], the “Activity level (growth inhibition rate) Abutilon theophrasti” value in assay [1] is listed as 5 (Level 5: the growth inhibition rate is greater than 85%). In addition, in assay [2], the “Activity level (growth inhibition rate) Galium spurium” value is recorded as 5 (Level 5: the growth inhibition rate is greater than 85%). Moreover, the “Activity level (growth inhibition rate) Echinochloa crusgalli” value in assay [3] is listed as 5 (Level 5: the growth inhibition rate is greater than 85%). Besides, in assay [4], the “Activity level (growth inhibition rate) Digitaria sanguinalis” value was 5 (Level 5: the growth inhibition rate is greater than 85%). Moreover, the “Activity level (growth inhibition rate) Monochoria Vaginalis” value in assay [5] is given as 5 (Level 5: the growth inhibition rate is greater than 85%).

Consider `CC(Oc1nc(F)c(Cl)c(N)c1Cl)C(=O)SCc1cccc(C(=O)O)c1` (stereo not shown) [Compound 87], for which the “Activity level (growth inhibition rate) Abutilon theophrasti” value in assay [1] is 5 (Level 5: the growth inhibition rate is greater than 85%). Besides, in assay [2], the “Activity level (growth inhibition rate) Galium spurium” value is recorded as 5 (Level 5: the growth inhibition rate is greater than 85%). Also, in assay [3], the “Activity level (growth inhibition rate) Echinochloa crusgalli” value is recorded as 5 (Level 5: the growth inhibition rate is greater than 85%). For the same compound, in assay [4], the “Activity level (growth inhibition rate) Digitaria sanguinalis” value was 5 (Level 5: the growth inhibition rate is greater than 85%). The “Activity level (growth inhibition rate) Monochoria Vaginalis” value in assay [5] is on record as 5 (Level 5: the growth inhibition rate is greater than 85%).

Take `CC(Oc1nc(F)c(Cl)c(N)c1Cl)C(=O)OCCc1nnco1` (stereo not shown) [Compound 148]: the “Activity level (growth inhibition rate) Abutilon theophrasti” value in assay [1] is recorded as 5 (Level 5: the growth inhibition rate is greater than 85%). For the same compound, the “Activity level (growth inhibition rate) Galium spurium” value in assay [2] is given as 5 (Level 5: the growth inhibition rate is greater than 85%). Moreover, in assay [3], the “Activity level (growth inhibition rate) Echinochloa crusgalli” value was 5 (Level 5: the growth inhibition rate is greater than 85%). The “Activity level (growth inhibition rate) Digitaria sanguinalis” value in assay [4] was 5 (Level 5: the growth inhibition rate is greater than 85%). Moreover, the “Activity level (growth inhibition rate) Monochoria Vaginalis” value in assay [5] was 5 (Level 5: the growth inhibition rate is greater than 85%).

As to `COC(=O)Nc1cccc(CCOC(=O)C(C)Oc2nc(F)c(Cl)c(N)c2Cl)c1` (stereo not shown) [Compound 107], in assay [1], the “Activity level (growth inhibition rate) Abutilon theophrasti” value was 5 (Level 5: the growth inhibition rate is greater than 85%). Moreover, the “Activity level (growth inhibition rate) Galium spurium” value in assay [2] is given as 5 (Level 5: the growth inhibition rate is greater than 85%). Further, the “Activity level (growth inhibition rate) Echinochloa crusgalli” value in assay [3] is on record as 5 (Level 5: the growth inhibition rate is greater than 85%). Besides, in assay [4], the “Activity level (growth inhibition rate) Digitaria sanguinalis” value is 5 (Level 5: the growth inhibition rate is greater than 85%). Further, the “Activity level (growth inhibition rate) Monochoria Vaginalis” value in assay [5] was 5 (Level 5: the growth inhibition rate is greater than 85%).

For the compound `CC(Oc1nc(F)c(Cl)c(N)c1Cl)C(=O)SCc1ccc2cc(Cl)ccc2c1` (stereo not shown) [Compound 182], the “Activity level (growth inhibition rate) Abutilon theophrasti” value in assay [1] is 5 (Level 5: the growth inhibition rate is greater than 85%). For the same compound, the “Activity level (growth inhibition rate) Galium spurium” value in assay [2] was 5 (Level 5: the growth inhibition rate is greater than 85%). Moreover, the “Activity level (growth inhibition rate) Echinochloa crusgalli” value in assay [3] is on record as 5 (Level 5: the growth inhibition rate is greater than 85%). In assay [4], the “Activity level (growth inhibition rate) Digitaria sanguinalis” value is reported as 5 (Level 5: the growth inhibition rate is greater than 85%). Besides, the “Activity level (growth inhibition rate) Monochoria Vaginalis” value in assay [5] was 5 (Level 5: the growth inhibition rate is greater than 85%).

`CC(Oc1nc(C(F)(F)F)c(F)c(N)c1C(C)C)C(=O)OCc1ccccc1` (stereo not shown) [Compound 11]: in assay [1], the “Activity level (growth inhibition rate) Abutilon theophrasti” value is on record as 5 (Level 5: the growth inhibition rate is greater than 85%). Moreover, the “Activity level (growth inhibition rate) Galium spurium” value in assay [2] is 5 (Level 5: the growth inhibition rate is greater than 85%). In assay [3], the “Activity level (growth inhibition rate) Echinochloa crusgalli” value is listed as 5 (Level 5: the growth inhibition rate is greater than 85%). The “Activity level (growth inhibition rate) Digitaria sanguinalis” value in assay [4] is on record as 5 (Level 5: the growth inhibition rate is greater than 85%). Besides, in assay [5], the “Activity level (growth inhibition rate) Monochoria Vaginalis” value was 5 (Level 5: the growth inhibition rate is greater than 85%).

For `CC(Oc1nc(F)c(Cl)c(N)c1Cl)C(=O)OCc1cnoc1` (stereo not shown) [Compound 146], in assay [1], the “Activity level (growth inhibition rate) Abutilon theophrasti” value is given as 5 (Level 5: the growth inhibition rate is greater than 85%). Moreover, the “Activity level (growth inhibition rate) Galium spurium” value in assay [2] is on record as 5 (Level 5: the growth inhibition rate is greater than 85%). The “Activity level (growth inhibition rate) Echinochloa crusgalli” value in assay [3] is 5 (Level 5: the growth inhibition rate is greater than 85%). For the same compound, in assay [4], the “Activity level (growth inhibition rate) Digitaria sanguinalis” value is on record as 5 (Level 5: the growth inhibition rate is greater than 85%). Also, the “Activity level (growth inhibition rate) Monochoria Vaginalis” value in assay [5] is listed as 5 (Level 5: the growth inhibition rate is greater than 85%).
